Assay results reported in patent US11813264B2, “PAR1 modulation to alter myelination” (Mayo Foundation for Medical Education and Research, priority 2014, dated 2023).
Where no end group is shown, it is not given here.

How the values were obtained:
[1] = test system: Oli-neu oligodendrocytes; assay: Process retraction in Oli-neu oligodendrocytes (Phalloidin+ processes per cell); format: cell-based, mouse; settings: 24 hours, PAR1-AP 100 μM, Klk1 300 nM; for number of processes per cell: Klk6 30, 150, 300 nM, thrombin 270 nM
Protocol: (§1) Oli-neu oligodendrocytes are derived from mouse primary oligodendrocyte cultures retrovirally transduced to constitutively express the t-neu oncogene (Jung et al., Eur J Neurosci 7:1245-1265, 1995). All morphology, signaling, and myelin gene expression studies using Oli-neu oligodendrocytes were performed in media containing DMEM, 1% N2, 2 mM Glutamax, 1 mM sodium pyruvate, 20 mM HEPES buffer, and 50 μM β-mercaptoethanol (Sigma Aldrich. To evaluate PAR and Klk6 gene expression in Oli-neu (Table 2), cells were differentiated by treatment with 1 mM N^6, 2′-O-dibutyryladenosine 3′, 5′-cyclic monophosphate disodium salt (dbcAMP) for 72 hours prior to harvesting for RNA isolation. All cells were maintained at 37° C. in 95% air and 5% CO2. Cell culture reagents were obtained from Life Technologies (Carlsbad, CA) unless otherwise indicated. All cell culture experiments were performed in triplicate and repeated at least twice.
(§2) PAR agonist-induced changes in oligodendrocyte morphology: To determine the effects of recombinant Klk6, Klk1, thrombin, or PAR1-AP on oligodendroglia, 3 DIV PAR1^+/+, PAR1^−/−, and PAR2^−/− oligodendrocytes, PAR1^+/+ OPCs immediately post purification, or Oli-neu cells were grown on cover slips in the presence of agonists for 24 h. For ATP toxicity assays, oligodendrocytes were incubated with ATP (50 μM, Sigma Aldrich) in the presence of Klk6 or Klk1. Following each treatment, oligodendrocyte and OPC cultures were immunolabeled for O4 to visualize the cell body and processes. Oli-neu processes were visualized by staining the actin cytoskeleton with Cy3-conjugated Phalloidin.
(§3) To assess the effects of Klk6 and other PAR1 agonists on oligodendrocyte morphology and process stability, 20× digital micrographs were overlaid with a 780 μm^2 grid and ImageJ software 1.45r (National Institutes of Health) used to record cell number and the number of processes crossing horizontal grid lines (Scarisbrick et al., Brain 125:1283-1296, 2002). Data are expressed as the mean number of O4^+ or Phalloidin^+ processes per DAPI^+ cell (±SEM).

[2] = test system: PLP and MBP RNA expression; assay: Myelin gene expression (PLP, MBP RNA) in Oli-neu oligodendrocytes, quantitative RT-PCR; format: cell-based, mouse; settings: for PLP expression: 24 hours, Klk6 300 nM, thrombin 270 nM, PAR1-AP 100 μM, Klk1 300 nM
Protocol: as §1
Expression of oligodendrocyte PARs and Klk6-real-time quantitative PCR: Total RNA was isolated from cultured cells using RNA STAT-60 (Tel-Test, Friendswood, TX). Klk6, PAR1, or PAR2 RNA expression was determined in 0.5 μg of RNA with the iScript one-step RT-PCR kit with SYBR® Green and the iCycler iQ5 system (BioRad, Hercules, CA). Transcript copy number was determined using a standard curve prepared by parallel amplification of cDNA clones diluted to known copy number (Christophi et al., J Neurochem 91:1439-1449, 2004). Amplification of the housekeeping gene glyceraldehyde phosphate 3-dehydrogenase (GAPDH) was used to control for loading. The mean and standard error (SEM) of transcript copy number was determined and data expressed as RNA copy number on a logarithmic scale.
Regulation of oligodendrocyte myelin gene expression by PAR1 agonists: Primary murine oligodendrocytes (3 DIV) or Oli-neu oligodendrocytes were seeded at 3.5×10^5 cells/well in six-well tissue culture plates. Cells were then treated with Klk6 (30-300 nM), Klk1 (300 nM), thrombin (270 nM), or PAR1-AP (100 μM) for 24 hours prior to RNA isolation. Expression of myelin-associated genes, PLP, and MBP was examined by real-time quantitative RT-PCR. Expression levels of target genes were normalized to GAPDH and expressed as percent control.

[3] = test system: spinal cord white matter; assay: Microinjection of Klk6 or PAR1-AP into spinal cord dorsal column white matter; format: in vivo, mouse
Protocol: In vivo effects of excess Klk6 or PAR1-AP in spinal cord white matter: All mice were administered Buprenorphine preoperatively (Buprenex, 0.03 mg/kg, intraperitoneal (i.p.), Reckitt Benckise, Slough, UK) and every 12 hours for the first 48 hours following surgery. Surgical anesthesia was induced in age-matched male C57BL6/J or PAR12/2 mice using Ketamine (Ketaset, 80 mg/kg, Fort Dodge Animal Health, Fort Dodge, IA) and Xylazine i.p. (Anased, 10 mg/kg, Lloyd Laboratories, Shenendoah, IA). A thoracic (T11-T12) laminectomy was performed and a 30-40 μm glass capillary needle inserted into a 10 μL gas-tight Hamilton Syringe (Hamilton Company, Reno, NV) used to deliver 2 μL of Klk6 (0.01 μg/μL (300 nM)), PAR1-AP (0.01 μg/μL (100 μM)), or vehicle (physiologic saline) alone (n=3 for each treatment group) using a stereotaxic injection system (Stoelting, Wood Dale, IL). Under micromanipulator control (MyNeurolab, Richmond, IL), the needle was inserted 350 μm into the dorsal column, infusion carried out over 5 minutes and the needle left in place for 3 minutes to avoid backflow. All mice received 0.5 mL of sterile saline and Baytril (2.5 mg/kg, Bayer Healthcare, Shawnee Mission, KS) i.p. postoperatively.
Seventy-two hours after microinjection of PAR1 agonists, mice were deeply anesthetized with Nembutal (50 mg/kg, i.p., Lundbeck, Deerfield, IL) and perfused transcardially with 4% PFA. Two millimeter transverse spinal cord segments encompassing the microinjection epicenter as well as 2 mm rostral and caudal were embedded in paraffin. Six micrometer sections were cut and slide mounted serially. Every sixth slide was stained with hematoxylin and eosin (H&E). Adjacent sections were immunostained for oligodendroglia using an antibody specific for CC-1/APC (ab16794, AbCam, Cambridge, MA), myelin using an antibody recognizing MBP (MAB386, Millipore, Bedford, MA), and standard avidin-biotin immunoperoxidase techniques (Scarisbrick et al., J Comp Neurol 431:347-361, 2001; and Scarisbrick et al. 2012b, supra). Stained sections were cover slipped with Permount (Fisher Scientific, Pittsburgh, PA) containing 2 mg/mL bisbenzamide to visualize nuclei (Sigma Aldrich).
Measurements of white matter lesion area were based on signs of pathology (vacuolation, tissue destruction, hemorrhage) in 20× digital images of H&E stained sections. The largest lesion area in each animal was used to determine mean maximal lesion area and expressed in μm^2. The integrity of MBP immunoreactivity was assessed in sections for 2,000 μm rostrocaudal to the microinjection site. The number of dorsal column CC-1^+/DAPI^+ cells was quantified in sections across […] of spinal cord extending rostrocaudal to the epicenter. The mean area of dorsal column white matter in the intact spinal cord was approximately […]. To put the number of CC-1^+ oligodendrocytes into context, the mean number CC-1V cells per mm^2 was evaluated as the mean number per […]. Sections stained for CC-1 were also stained for GFAP (Sigma Aldrich), allowing for the exclusion of CC-1^+ astrocytes; however, no examples of double labeled cells were observed.

[4] = test system: primary oligodendrocyte cultures (3 DIV); assay: ATP toxicity assay in oligodendrocytes; format: cell-based, mouse
Protocol: as §2, §3
(§4) The extent of oligodendrocyte morphological differentiation was determined by scoring O4^+/DAPI^+ oligodendrocyte morphology as simple (only primary processes, no secondary branching), incomplete (one or more primary process without secondary branching), complete (all primary processes with secondary branching), or membrane (complete secondary branching with membrane sheets) (Huang et al., Nat Neurosci 14:45-53, 2011). The mean number of cells in each morphology class was determined across treatments and expressed as percent of total O4^+/DAPI^+ cells.
(§5) Changes in OPC or oligodendrocyte morphology were quantified from five microscopic fields per cover slip with the mean and SEM calculated across three cover slips per experiment. Each experiment was repeated at least twice using independent cultures. Analysis of oligodendrocyte morphology was performed without knowledge of treatment groups.

[5] = test system: oligodendrocyte progenitor cells (OPCs); assay: OPC process outgrowth; format: cell-based, mouse; settings: 24 h; for OPC process extension / outgrowth: Klk6 150 nM, thrombin 135 nM, Klk1 150 nM
Protocol: (§6) Oligodendrocyte Cultures: Purified cortical oligodendrocyte progenitor cells (OPCs) and differentiated oligodendrocytes were isolated from mixed glial cultures derived from postnatal day 1 mice (McCarthy and de Vellis, J Cell Blot 85:890-902, 1980). Glial cultures were grown in media containing DMEM, 2 mM Glutamax, 1 mM sodium pyruvate, 20 mM HEPES, and 10% heat-inactivated fetal calf serum (Atlanta Biologicals, Lawrenceville, GA). OPCs were isolated from 10 days-in-vitro (DIV) mixed glial cultures by overnight shaking and purified by differential adhesion. OPCs were seeded in defined Neurobasal A media containing 1% N2, 50 U/mL penicillin/streptomycin, 2 mM Glutamax, 1 mM sodium pyruvate, 0.45% glucose, and 50 μM β-mercaptoethanol (Sigma Aldrich, USA). OPCs were seeded at 3×10^4/cm^2 onto tissue culture plastic or 12 mm glass cover slips coated with poly-L-lysine (PLL, 10 μg/mL). After 24 h, cultures were 92-98% immunoreactive (IR) for sulfatide (O4) and by 72 hours at least 80% were also MBP-IR.
as §2, §3, §5

[6] = test system: primary oligodendrocyte cultures (3 DIV); assay: Oligodendrocyte morphological differentiation scoring (simple, incomplete, complete, membrane), process and cell number; format: cell-based, mouse
Protocol: as §6, §2, §3, §4, §5

[7] = test system: Erk1/2 phosphorylation; assay: Klk6-PAR signaling assay, Erk1/2 phosphorylation by Western blot in Oli-neu; format: cell-based, mouse; settings: treatment alone; Klk6 10 minutes
Protocol: Klk6-PAR signaling assays: To examine the ability of Klk6 to mediate PAR-dependent signaling in oligodendrocytes, Oli-neu oligodendroglia (3.5×10^5 cells/well in six-well plates) were treated with Klk6 (150 nM) for 10 min, followed by protein harvest. Cell lysates were analyzed for phosphorylated or nonphosphorylated Erk1/2 by Western blot. In experiments to determine the role of PARs in Klk6 signaling, Oli-neu were preincubated with the PAR1 antagonist, SCH79797 dihydrochloride (50 nM, Tocris Biosciences, Minneapolis, MN) for 30 minutes prior to Klk6 application.
Western blot: Oli-neu lysates were obtained using a buffer containing 1% NP40, 0.5% deoxycholate, 10% glycerol, and 20 mM Tris base and separated on SDS-polyacrylamide gels prior to transfer. Membranes were blocked with 5% milk in TBS-T and incubated overnight with primary antibodies including rabbit anti-phospho-Erk1/2 (1:1,000, Cell Signaling Technology, Danvers, MA), followed with a species-appropriate horseradish peroxidase-conjugated secondary antibody (1:20,000 GE Healthcare Unlimited, UK). Signal was detected using Chemiluminescence Supersignal Pico (Pierce, Rockford, IL). Western blots were repeated three times from independent cultures, scanned, and quantified by densitometry (BioRad Quantity One 1-D Analysis Software, BioRad, Hercules, CA). Erk1/2 signal was normalized to its nonphosphorylated form. Equal loading was verified by reprobing blots for […] (Novus Biologicals, Littleton, CO).

[8] = Klk6 150 nM, Klk1 300 nM, 24 hours

In the case of “TFLLR-amide (TFLLR-NH2) [PAR1-AP, reference compound]”, the “number of processes per cell” value [1] is reported as “significant decrease”, the PLP expression [2] is reported as “significantly decreased” and the “maximal lesion area relative to saline alone” value ([3]; PAR1+/+ mice) is reported as “enhanced”. The “reduction of CC-1+ cells in dorsal column white matter” value ([3]; PAR1+/+ mice) was about 15%, the “loss of MBP-immunoreactivity relative to saline alone” value ([3]; PAR1+/+ mice, 72 hours) was about 45% and the “rostrocaudal white matter pathology” value ([3]; PAR1+/+ mice, 0.02 μg, 72 hours) was 1,026.0±105.3 μm. The white matter pathology ([3]; PAR1-/- mice) was “absent”.
`Nc1ncnc2c1ncn2[C@@H]1O[C@H](COP(=O)(O)OP(=O)(O)OP(=O)(O)O)[C@@H](O)[C@H]1O` [ATP, reference compound] was tested, and the “number of processes per oligodendrocyte” value ([4]; ATP 50 μM alone) was “two-fold reduction”, the “cells with complete morphology” value ([4]; ATP 50 μM alone, 24 h) was “significant decrease” and the “cells with membrane morphology” value ([4]; ATP 50 μM alone, 24 h) was “small, but significant increase”. For the same compound, the “percentage of cells with simple morphology” value ([4]; ATP 50 μM alone, 24 h) was “significant increase” and the “oligodendrocyte number relative to control” value ([4]; ATP alone) was “significant decrease”.
`N#CC(=C(/N)Sc1ccccc1N)/C(C#N)=C(\N)Sc1ccccc1N` [U0126, reference compound] was tested, and the “PLP RNA expression” value ([2]; U0126 alone) was “No significant change”.
thrombin was tested, and the “number of processes per cell” value [1] was “significant decrease”, the “number of OPCs” value [5] was “no effect” and the “OPC process extension / outgrowth” value [5] was “inhibited”. The PLP expression [2] was “significantly decreased”.
In the case of “Klk1: Recombinant murine Klk1 expressed using a baculovirus system”, the oligodendrocyte morphology ([6]; 300 nM) is reported as “did not significantly impact”, the oligodendrocyte number [6, 8] is reported as “did not significantly impact” and the processes per cell [6, 8] is reported as “did not significantly impact”. The ATP-induced oligodendrocyte loss ([4]; co-application with ATP) was “did not increase”, the “number of processes per oligodendrocyte” value ([4]; co-application with ATP 50 μM) was “did not impact” and the “oligodendrocytes with membrane morphology” value ([4]; co-application with ATP 50 μM) was “significant decrease”. For the same compound, the Oli-neu cell number ([1]; Klk6 30 nM) was “no effect”, the “number of processes per cell” value [1] was “no effect” and the “number of OPCs” value [5] was “no effect”. The “OPC process extension / outgrowth” value [5] was “comparable to controls” and the Erk1/2 phosphorylation [7] was “No significant changes”.
